Source: patent publication US7265152B2 (ViroPharma Incorporated, priority 2002, dated 2007)
Like-named read-outs stand apart in the source and are kept apart here.

Experiments:
HCV NS5B = biological target: T1, HCV NS5B (Hepatitis C virus genotype 1b, UniProt Q9WMX2); test: Inhibition of viral RNA-dependent RNA polymerase (RdRp), in vitro biochemical assay; parameters: species or system HCV genotype 1b virus (BB7); conditions: read-out: HCV pol-BB7 IC50
T1 construct: fusion protein, of which the carboxyl terminal 21 amino acids were removed to enhance its solubility; His tag (GSHHHHHH); made in house; host or cells: E. coli
Procedure, shortened: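 Purified recombinant NS5B from a genotype 1b consensus (BB7), His-tagged, E. coli-expressed, with the C-terminal 21 residues deleted. Inhibition of RdRp activity in vitro was measured, and IC50 is the concentration giving 50% inhibition.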

[1] = tested on: HCV replicon (BB7 sequence) in Huh-7-Clone A cells; test: HCV replicon assay: ELISA of NS5A protein in replicon-containing cells (Inhibition of Viral RNA Replication); assay type: cell-based; conditions: Hepatitis C virus
Procedure, shortened: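 Huh-7-Clone A cells carrying subgenomic BB7 HCV replicon (G418-selectable) incubated 72 h with compound. NS5A protein quantified by cell ELISA: glutaraldehyde fixation, anti-NS5A monoclonal plus HRP secondary, TMB read at OD 650 nm. EC50 derived from 8-point serial dilution dose curve.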

[2] = ranges of EC50 in HCV replicon assay, read-out: Replicon
[3] = HCV NS5B RdRp, BB7, class symbols A-D
[4] = HCV replicon assay, ranges of EC50, read-out: Replicon
[5] = HCV NS5B RdRp, BB7, activity class
[6] = purified His-tagged NS5B (BB7), carboxyl terminal 21 amino acids removed
[7] = Huh-7-Clone A, NS5A ELISA, 72-hour incubation, ranges of EC50, read-out: Replicon
[8] = HCV NS5B RdRp, BB7, reported as range class
[9] = HCV replicon, range of EC50, read-out: Replicon

| Structure (SMILES) | IC50 (HCV NS5B; HCV NS5B RdRp, BB7 genotype 1b) [nM] | EC50 [1, 2] [µM] | EC50 [1, 4] [µM] | also measured |
| --- | --- | --- | --- | --- |
| CNC(=O)c1c(-c2ccc(F)cc2)oc2cc(N(C3CCCC3)S(C)(=O)=O)c(OC(C)C)cc12 [Example 163, 6-(Cyclopentyl-methanesulfonyl-amino)-2-(4-fluoro-phenyl)-5-isopropoxy-benzofuran-3-carboxylic acid methylamide] | ≤ 500 | < 1 |  |  |
| CNC(=O)c1c(-c2ccc(F)cc2)oc2cc(C=O)c(OC(C)C)cc12 [Example 160, 2-(4-Fluoro-phenyl)-6-formyl-5-isopropoxy-benzofuran-3-carboxylic acid methylamide] | ≤ 500 | < 30 |  |  |
| CNC(=O)c1c(-c2ccc(F)cc2)oc2cc(C3CCCN3)c(OC(C)C)cc12 (stereo not shown) [Example 265, 2-(4-Fluoro-phenyl)-5-isopropoxy-6-pyrrolidin-2-yl-benzofuran-3-carboxylic acid methylamide] |  |  | > 30 | IC50 (HCV NS5B; [3]): 5000 to 30000 nM |
| CNC(=O)c1c(-c2ccc(F)cc2)oc2cc(N(C)S(C)(=O)=O)c(OCc3cccc(C#N)c3)cc12 [Example 356, 5-(3-Cyano-benzyloxy)-2-(4-fluoro-phenyl)-6-(methanesulfonyl-methyl-amino)-benzofuran-3-carboxylic acid methylamide] |  |  | < 1 | IC50 (HCV NS5B; [5]): ≤ 500 nM |
| CNC(=O)c1c(-c2ccc(F)cc2)oc2cc(OC)c(OC(C)C)cc12 [Example 158, 2-(4-Fluoro-phenyl)-5-isopropoxy-6-methoxy-benzofuran-3-carboxylic acid methylamide] | ≤ 500 | < 10 |  |  |
| CNC(=O)c1c(-c2ccc(F)cc2)oc2cc(S(=O)(=O)NC3CC3)c(OC(C)C)cc12 [Example 155, 6-Cyclopropylsulfamoyl-2-(4-fluoro-phenyl)-5-isopropoxy-benzofuran-3-carboxylic acid methylamide] | ≤ 500 | < 10 |  |  |
| CNC(=O)c1c(-c2ccc(F)cc2)oc2cc(S(=O)(=O)N3CCC(O)CC3)c(OC(C)C)cc12 [Example 169, 2-(4-Fluoro-phenyl)-6-(4-hydroxy-piperidine-1-sulfonyl)-5-isopropoxy-benzofuran-3-carboxylic acid methylamide] | ≤ 500 | < 1 |  |  |
| CNC(=O)c1c(-c2ccc(F)cc2)oc2cc(C3CCN(C(C)=O)C3)c(OC)cc12 (stereo not shown) [Example 345, 6-(1-Acetyl-pyrrolidin-3-yl)-2-(4-fluoro-phenyl)-5-methoxy-benzofuran-3-carboxylic acid methylamide] |  |  | < 10 | IC50 (HCV NS5B; [5]): ≤ 500 nM |
| CNC(=O)c1c(-c2ccc(F)cc2)oc2cc(S(=O)(=O)N3CCCC3)c(OC(C)C)cc12 [Example 154, 2-(4-Fluoro-phenyl)-5-isopropoxy-6-(pyrrolidine-1-sulfonyl)-benzofuran-3-carboxylic acid methylamide] | ≤ 500 | < 10 |  |  |
| CNC(=O)c1c(-c2ccc(F)cc2)oc2cc(-c3cc(C)on3)c(OC(C)C)cc12 [Example 283, 2-(4-Fluoro-phenyl)-5-isopropoxy-6-(5-methyl-isoxazol-3-yl)-benzofuran-3-carboxylic acid methylamide] |  |  | < 1 | IC50 (HCV NS5B; [3]): ≤ 500 nM |
| CNC(=O)c1c(-c2ccc(F)cc2)oc2cc(C)c(OC(C)C(=O)O)cc12 (stereo not shown) [Example 97, 2-[2-(4-Fluoro-phenyl)-6-methyl-3-methylcarbamoyl-benzofuran-5-yloxy]-propionic acid] | 5000 to 30000 | > 30 |  |  |
| CNC(=O)c1c(-c2ccc(F)cc2)oc2cc(N(C)S(C)(=O)=O)c(OCc3cccc(C(=O)OC)c3)cc12 [Example 306] |  |  |  | IC50 (HCV NS5B; [3]): ≤ 500 nM; EC50 ([1]; read-out: Replicon (μM)): < 1 µM |
| CCOC(=O)c1csc(CN(c2cc3oc(-c4ccc(F)cc4)c(C(=O)NC)c3cc2OC(C)C)S(C)(=O)=O)n1 [Example 286, 2-({[2-(4-Fluoro-phenyl)-5-isopropoxy-3-methylcarbamoyl-benzofuran-6-yl]-methanesulfonylamino}-methyl)-thiazole-4-carboxylic acid ethyl ester] |  |  | < 10 | IC50 (HCV NS5B; [3]): ≤ 500 nM |
| CNC(=O)c1c(-c2ccco2)oc2ccc(OC)cc12 [Example 68, 2-Furan-2-yl-5-methoxy-benzofuran-3-carboxylic acid methylamide] |  |  |  | IC50 (HCV NS5B; [6]): 500 to 5000 nM; EC50 [1, 7]: < 30 µM |
| CNC(=O)c1c(-c2ccc(F)c(F)c2)oc2ccc(OC)cc12 [Example 3, 2-(3,4-Difluoro-phenyl)-5-methoxy-benzofuran-3-carboxylic acid methylamide] |  |  |  | IC50 (HCV NS5B; [6]): ≤ 500 nM; EC50 [1, 7]: < 10 µM |
| CNC(=O)c1c(-c2ccc(F)cc2)oc2cc(-c3cc(CO)on3)c(OC)cc12 [Example 40, 2-(4-Fluoro-phenyl)-6-(5-hydroxymethyl-isoxazol-3-yl)-5-methoxy-benzofuran-3-carboxylic acid methylamide] |  |  |  | IC50 (HCV NS5B; [6]): ≤ 500 nM; EC50 [1, 7]: < 1 µM |
| CNC(=O)c1c(-c2ccc(F)cc2)oc2cc(-c3cn[nH]c3C)c(OC(C)C)cc12 [Example 257, 2-(4-Fluoro-phenyl)-5-isopropoxy-6-(5-methyl-1H-pyrazol-4-yl)-benzofuran-3-carboxylic acid methylamide] |  |  | < 1 | IC50 (HCV NS5B; [3]): ≤ 500 nM |
| CNC(=O)c1c(-c2ccc(F)cc2)oc2cc(C(C)=O)c(OC)cc12 [Example 261, 6-Acetyl-2-(4-fluoro-phenyl)-5-methoxy-benzofuran-3-carboxylic acid methylamide] |  |  | < 1 | IC50 (HCV NS5B; [3]): ≤ 500 nM |
| CNC(=O)c1c(-c2ccc(F)cc2)oc2cc(N(CC(C)=O)S(C)(=O)=O)c(OC(C)C)cc12 [Example 34, 2-(4-Fluoro-phenyl)-5-isopropoxy-6-[methanesulfonyl-(2-oxo-propyl)-amino]-benzofuran-3-carboxylic acid methylamide] |  |  |  | IC50 (HCV NS5B; [6]): ≤ 500 nM; EC50 [1, 7]: < 1 µM |
| CNC(=O)c1c(-c2ccc(F)cc2)oc2cc(NS(=O)(=O)C(C)C)c(OC(C)C)cc12 [Example 145, 2-(4-Fluoro-phenyl)-5-isopropoxy-6-(propane-2-sulfonylamino)-benzofuran-3-carboxylic acid methylamide] | 500 to 5000 | < 10 |  |  |
| CNC(=O)c1c(-c2ccc(F)cc2)oc2cc(N(C)S(C)(=O)=O)c(OCC(=O)OC(C)(C)C)cc12 [Example 382, [2-(4-Fluoro-phenyl)-6-(methanesulfonyl-methyl-amino)-3-methylcarbamoyl-benzofuran-5-yloxy]-acetic acid tert-butyl ester] |  |  |  | IC50 (HCV NS5B; HCV NS5B polymerase, BB7 (genotype 1b), values given as range classes A-D): ≤ 500 nM; EC50 ([1]; HCV replicon assay, ranges of 50% effective concentration (EC50), read-out: Replicon): < 1 µM |
| CNC(=O)c1c(-c2ccc(F)cc2)oc2cc(-c3c(COC)noc3C)c(OC)cc12 [Example 336, 2-(4-Fluoro-phenyl)-5-methoxy-6-(3-methoxymethyl-5-methyl-isoxazol-4-yl)-benzofuran-3-carboxylic acid methylamide] |  |  | < 1 | IC50 (HCV NS5B; [5]): ≤ 500 nM |
| CNC(=O)c1c(-c2ccccc2)oc2ccc(OC)c(C)c12 [Example 25, 5-Methoxy-4-methyl-2-phenyl-benzofuran-3-carboxylic acid methylamide] |  |  |  | IC50 (HCV NS5B; [6]): > 30000 nM; EC50 [1, 7]: > 30 µM |
| CNC(=O)c1c(-c2ccc(F)cc2)oc2cc(N3CCOCC3)c(OCc3noc(-c4c(C)noc4C)n3)cc12 [Example 203, 5-[5-(3,5-Dimethyl-isoxazol-4-yl)-[1,2,4]oxadiazol-3-ylmethoxy]-2-(4-fluoro-phenyl)-6-morpholin-4-yl-benzofuran-3-carboxylic acid methylamide] |  |  |  | IC50 (HCV NS5B; [8]): 500 to 5000 nM; EC50 [1, 9]: < 10 µM |
| CCN(c1cc2oc(-c3ccc(F)cc3)c(C(=O)NC)c2cc1F)S(C)(=O)=O [Example 333, 6-(Ethyl-methanesulfonyl-amino)-5-fluoro-2-(4-fluoro-phenyl)-benzofuran-3-carboxylic acid methylamide] |  |  | < 10 | IC50 (HCV NS5B; [5]): ≤ 500 nM |
| CNC(=O)c1c(-c2ccc(F)cc2)oc2cc(N(CC(C)C)S(C)(=O)=O)c(O)cc12 [Example 326, 2-(4-Fluoro-phenyl)-5-hydroxy-6-(isobutyl-methanesulfonyl-amino)-benzofuran-3-carboxylic acid methylamide] |  |  | < 30 | IC50 (HCV NS5B; [3]): 500 to 5000 nM |
| CNC(=O)c1c(-c2ccc(F)cc2)oc2cc(-c3ncc[nH]3)c(OC(C)C)cc12 [Example 244, 2-(4-Fluoro-phenyl)-6-(1H-imidazol-2-yl)-5-isopropoxy-benzofuran-3-carboxylic acid methylamide] |  |  |  | IC50 (HCV NS5B; [8]): ≤ 500 nM; EC50 [1, 9]: < 1 µM |
| CNC(=O)c1c(-c2ccc(F)cc2)oc2cc(N3CC(C)OC(C)C3)c(OC(C)C)cc12 (stereo not shown) [Example 138, 6-(2,6-Dimethyl-morpholin-4-yl)-2-(4-fluoro-phenyl)-5-isopropoxy-benzofuran-3-carboxylic acid methylamide] | 500 to 5000 | < 10 |  |  |
| CNC(=O)c1c(-c2ccncc2)oc2ccc(F)cc12 [Example 96, 5-Fluoro-2-pyridin-4-yl-benzofuran-3-carboxylic acid methylamide] | 500 to 5000 | > 30 |  |  |
